Patent publication US10150760B2, “Compounds for use in preparing heterocyclic triazole agonists of the APJ receptor” (AMGEN INC., priority 2016, dated 2018)

Target: human APJ receptor (Homo sapiens (Human), UniProt P35414)
Assay: [35S]GTPγS binding assay on membranes from CHO cells stably expressing human APJ receptor
Assay type: biochemical
Conditions: read-out: Activity hAPJ SPA EC50 IP
How it was run: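 Membranes from CHO cells stably expressing human APJ incubated with ligand, 0.2 nM [35S]GTPγS and WGA SPA beads in HEPES pH 7.5 with 5 mM MgCl2, 200 mM NaCl, 3 μM GDP, 90 min at RT. Nonspecific binding defined with 100 μM GTPγS; EC50 by non-linear regression.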

Chain of human APJ receptor (P35414 whole entry): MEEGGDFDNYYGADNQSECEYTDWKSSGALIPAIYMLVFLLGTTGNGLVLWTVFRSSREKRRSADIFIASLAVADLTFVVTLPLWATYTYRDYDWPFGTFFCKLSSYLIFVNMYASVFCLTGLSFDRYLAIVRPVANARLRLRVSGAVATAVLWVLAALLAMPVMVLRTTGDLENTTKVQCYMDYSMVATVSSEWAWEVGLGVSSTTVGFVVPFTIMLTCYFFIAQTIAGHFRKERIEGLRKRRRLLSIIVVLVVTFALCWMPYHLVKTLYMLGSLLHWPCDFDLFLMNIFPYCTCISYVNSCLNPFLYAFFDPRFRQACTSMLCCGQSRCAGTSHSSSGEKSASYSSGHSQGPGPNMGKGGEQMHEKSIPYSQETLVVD

COc1ncnc(OC)c1-n1c(NS(=O)(=O)[C@@H](C)[C@H](C)c2ncc(F)cn2)nnc1[C@@H]1COCCO1 (single isomer, unassigned) [Example 278.0, (2S,3R)-N-(4-(4,6-dimethoxypyrimidin-5-yl)-5-((R)-1,4-dioxan-2-yl)-4H-1,2,4-triazol-3-yl)-3-(5-fluoropyrimidin-2-yl)butane-2-sulfonamide or (2S,3R)-N-(4-(4,6-dimethoxypyrimidin-5-yl)-5-((S)-1,4-dioxan-2-yl)-4H-1,2,4-triazol-3-yl)-3-(5-fluoropyrimidin-2-yl)butane-2-sulfonamide]
EC50: 510 nM

COc1ncnc(OC)c1-n1c(NS(=O)(=O)[C@@H](C)[C@@H](OC(C)C)c2ncc(Cl)cn2)nnc1[C@H]1CCC(C)(C)O1 (single isomer, unassigned) [Example 279.0, (1S,2S)-1-(5-chloropyrimidin-2-yl)-N-(4-(4,6-dimethoxypyrimidin-5-yl)-5-((R)-5,5-dimethyltetrahydrofuran-2-yl)-4H-1,2,4-triazol-3-yl)-1-isopropoxypropane-2-sulfonamide or (1S,2S)-1-(5-chloropyrimidin-2-yl)-N-(4-(4,6-dimethoxypyrimidin-5-yl)-5-((S)-5,5-dimethyltetrahydrofuran-2-yl)-4H-1,2,4-triazol-3-yl)-1-isopropoxypropane-2-sulfonamide]
EC50: 0.68 nM

COc1ncnc(OC)c1-n1c(NS(=O)(=O)[C@@H](C)[C@@H](OC(C)C)c2ncc(Cl)cn2)nnc1[C@H]1CCC(C)(C)O1 (single isomer, unassigned) [Example 280.0, (1S,2S)-1-(5-chloropyrimidin-2-yl)-N-(4-(4,6-dimethoxypyrimidin-5-yl)-5-((R)-5,5-dimethyltetrahydrofuran-2-yl)-4H-1,2,4-triazol-3-yl)-1-isopropoxypropane-2-sulfonamide or (1S,2S)-1-(5-chloropyrimidin-2-yl)-N-(4-(4,6-dimethoxypyrimidin-5-yl)-5-((S)-5,5-dimethyltetrahydrofuran-2-yl)-4H-1,2,4-triazol-3-yl)-1-isopropoxypropane-2-sulfonamide]
EC50: 7.5 nM

COc1cccc(OC)c1-n1c(NS(=O)(=O)[C@@H](C)[C@@H](OC(C)C)c2ncc(Cl)cn2)nnc1[C@H]1CCOC1 (single isomer, unassigned) [Example 281.0, (1S,2S)-1-(5-chloropyrimidin-2-yl)-N-(4-(2,6-dimethoxyphenyl)-5-((R)-tetrahydrofuran-3-yl)-4H-1,2,4-triazol-3-yl)-1-isopropoxypropane-2-sulfonamide or (1S,25)-1-(5-chloropyrimidin-2-yl)-N-(4-(2,6-dimethoxyphenyl)-5-((S)-tetrahydrofuran-3-yl)-4H-1,2,4-triazol-3-yl)-1-isopropoxypropane-2-sulfonamide]
EC50: 0.11 nM

COc1cccc(OC)c1-n1c(NS(=O)(=O)[C@@H](C)[C@@H](OC(C)C)c2ncc(Cl)cn2)nnc1[C@H]1CCOC1 (single isomer, unassigned) [Example 282.0, (1S,2S)-1-(5-chloropyrimidin-2-yl)-N-(4-(2,6-dimethoxyphenyl)-5-((R)-tetrahydrofuran-3-yl)-4H-1,2,4-triazol-3-yl)-1-isopropoxypropane-2-sulfonamide or (1S,25)-1-(5-chloropyrimidin-2-yl)-N-(4-(2,6-dimethoxyphenyl)-5-((S)-tetrahydrofuran-3-yl)-4H-1,2,4-triazol-3-yl)-1-isopropoxypropane-2-sulfonamide]
EC50: 1.6 nM

COc1cccc(OC)c1-n1c(NS(=O)(=O)[C@@H](C)[C@@H](OC(C)C)c2ncc(Cl)cn2)nnc1[C@@H]1COCCO1 (single isomer, unassigned) [Example 283.0, (1S,2S)-1-(5-chloropyrimidin-2-yl)-N-(4-(2,6-dimethoxyphenyl)-5-((R)-1,4-dioxan-2-yl)-4H-1,2,4-triazol-3-yl)-1-isopropoxypropane-2-sulfonamide or (1S,2S)-1-(5-chloropyrimidin-2-yl)-N-(4-(2,6-dimethoxyphenyl)-5-((S)-1,4-dioxan-2-yl)-4H-1,2,4-triazol-3-yl)-1-isopropoxypropane-2-sulfonamide]
EC50: 0.63 nM

COCC1(n2c(NS(=O)(=O)[C@@H](C)[C@H](OC)c3ncc(Cl)cn3)nnc2[C@H]2CC[C@@H](C)O2)CC1 (single isomer, unassigned) [Example 285.0, (1R,2S)-1-(5-chloropyrimidin-2-yl)-1-methoxy-N-(4-(1-(methoxymethyl)cyclopropyl)-5-((2S,5S)-5-methyltetrahydrofuran-2-yl)-4H-1,2,4-triazol-3-yl)propane-2-sulfonamide or (1R,2S)-1-(5-chloropyrimidin-2-yl)-1-methoxy-N-(4-(1-(methoxymethyl)cyclopropyl)-5-((2R,5R)-5-methyltetrahydrofuran-2-yl)-4H-1,2,4-triazol-3-yl)propane-2-sulfonamide]
EC50: 64 nM

COCC1(n2c(NS(=O)(=O)[C@@H](C)[C@H](OC)c3ncc(Cl)cn3)nnc2[C@H]2CC[C@@H](C)O2)CC1 (single isomer, unassigned) [Example 286.0, (1R,2S)-1-(5-chloropyrimidin-2-yl)-1-methoxy-N-(4-(1-(methoxymethyl)cyclopropyl)-5-((2S,5S)-5-methyltetrahydrofuran-2-yl)-4H-1,2,4-triazol-3-yl)propane-2-sulfonamide or (1R,2S)-1-(5-chloropyrimidin-2-yl)-1-methoxy-N-(4-(1-(methoxymethyl)cyclopropyl)-5-((2R,5R)-5-methyltetrahydrofuran-2-yl)-4H-1,2,4-triazol-3-yl)propane-2-sulfonamide]
EC50: 1.4 nM

COCCn1c(NS(=O)(=O)[C@@H](C)[C@H](OC)c2ncc(Cl)cn2)nnc1[C@H]1CCC(C)(C)O1 (single isomer, unassigned) [Example 287.0, (1R,2S)-1-(5-chloropyrimidin-2-yl)-N-(5-((R)-5,5-dimethyltetrahydrofuran-2-yl)-4-(2-methoxyethyl)-4H-1,2,4-triazol-3-yl)-1-methoxypropane-2-sulfonamide or (1R,2S)-1-(5-chloropyrimidin-2-yl)-N-(5-((S)-5,5-dimethyltetrahydrofuran-2-yl)-4-(2-methoxyethyl)-4H-1,2,4-triazol-3-yl)-1-methoxypropane-2-sulfonamide]
EC50: 860 nM

COCCn1c(NS(=O)(=O)[C@@H](C)[C@H](OC)c2ncc(Cl)cn2)nnc1[C@H]1CCC(C)(C)O1 (single isomer, unassigned) [Example 288.0, (1R,2S)-1-(5-chloropyrimidin-2-yl)-N-(5-((R)-5,5-dimethyltetrahydrofuran-2-yl)-4-(2-methoxyethyl)-4H-1,2,4-triazol-3-yl)-1-methoxypropane-2-sulfonamide or (1R,2S)-1-(5-chloropyrimidin-2-yl)-N-(5-((S)-5,5-dimethyltetrahydrofuran-2-yl)-4-(2-methoxyethyl)-4H-1,2,4-triazol-3-yl)-1-methoxypropane-2-sulfonamide]
EC50: 410 nM
